In patent US10780090B2, “Heteroaryl compounds useful as inhibitors of SUMO activating enzyme” (Millennium Pharmaceuticals, Inc., priority 2014, dated 2020):
pIC50: −log10 of the molar value.

Biological target: recombinant human SAE enzyme (Homo sapiens (Human), UniProt Q9UBT2)
Assay: SAE HTRF enzyme assay
Type: biochemical
Settings: for pIC50: class symbols A/B/C; for IC50: SAE inhibition, class symbols, legend in nM; for inhibition at 0.111 µM: read-out: Percent Inhibition
Summary of the method: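 Human SAE (0.11 nM) with 0.5 μM ATP, 0.125 μM Sumo-Flag and 0.01 μM Ubc9-GST in HEPES pH 7.5, 5 mM MgCl2, 250 μM GSH; 105 min at 24 °C. Stopped with EDTA; HTRF read after 2 h with Eu-anti-Flag and APC-anti-GST. Percent inhibition or IC50 reported.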

[1] = SAE inhibition at compound concentration 0.111 μM

Chain of recombinant human SAE enzyme (Q9UBT2 whole entry): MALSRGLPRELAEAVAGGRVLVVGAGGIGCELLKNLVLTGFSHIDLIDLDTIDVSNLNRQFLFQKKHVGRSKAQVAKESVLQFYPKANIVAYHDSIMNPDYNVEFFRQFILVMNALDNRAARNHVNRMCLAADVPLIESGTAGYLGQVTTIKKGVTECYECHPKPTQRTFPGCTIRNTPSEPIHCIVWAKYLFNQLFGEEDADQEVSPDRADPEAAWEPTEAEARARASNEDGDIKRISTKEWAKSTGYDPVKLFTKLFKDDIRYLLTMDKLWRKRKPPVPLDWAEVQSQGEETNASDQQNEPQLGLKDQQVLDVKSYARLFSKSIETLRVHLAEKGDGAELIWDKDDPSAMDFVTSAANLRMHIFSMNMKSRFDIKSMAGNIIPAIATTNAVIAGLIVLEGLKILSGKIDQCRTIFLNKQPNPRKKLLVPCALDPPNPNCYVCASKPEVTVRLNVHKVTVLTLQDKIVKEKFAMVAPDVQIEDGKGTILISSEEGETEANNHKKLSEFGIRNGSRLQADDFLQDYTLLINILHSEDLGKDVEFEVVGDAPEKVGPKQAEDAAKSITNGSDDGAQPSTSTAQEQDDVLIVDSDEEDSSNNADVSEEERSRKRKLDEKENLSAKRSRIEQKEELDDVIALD
Chain of recombinant human SAE enzyme (Q9UBE0 whole entry partner): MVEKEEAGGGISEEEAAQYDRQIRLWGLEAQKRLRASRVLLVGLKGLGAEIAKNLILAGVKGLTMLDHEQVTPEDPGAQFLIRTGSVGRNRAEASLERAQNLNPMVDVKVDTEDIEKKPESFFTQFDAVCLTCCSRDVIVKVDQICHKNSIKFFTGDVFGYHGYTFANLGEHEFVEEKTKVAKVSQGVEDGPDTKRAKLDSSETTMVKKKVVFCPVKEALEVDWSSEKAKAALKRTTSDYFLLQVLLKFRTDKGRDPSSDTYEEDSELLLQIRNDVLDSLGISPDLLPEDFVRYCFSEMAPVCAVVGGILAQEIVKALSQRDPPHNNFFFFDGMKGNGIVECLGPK

Compound	Percent Inhibition (Concentration 0.111 μM)	pIC50	Percent Inhibition [1] [%]	IC50 [nM]	inhibition at 0.111 µM (Concentration 0.111 μM) [%]
Cc1sc(C(=O)c2cncnc2N[C@@H]2C[C@H](COS(N)(=O)=O)[C@@H](O)C2)cc1[S@+]([O-])c1cccc(Cl)c1 (single isomer, unassigned) [I-28a, [(1R,2S,4R)-4-{[5-({4-[(R)-(3-chlorophenyl)sulfinyl]-5-methyl-2-thienyl}carbonyl)pyrimidin-4-yl]amino}-2-hydroxycyclopentyl]methyl sulfamate or [(1R,2S,4R)-4-{[5-({4-[(S)-(3-chlorophenyl)sulfinyl]-5-methyl-2-thienyl}carbonyl)pyrimidin-4-yl]amino}-2-hydroxycyclopentyl]methyl sulfamate]	66	7.00 to 8.00			
NS(=O)(=O)OC[C@H]1C[C@@H](Nc2ncncc2C(=O)c2cc([C@@H]3OCC(F)(F)c4ccccc43)cs2)C[C@@H]1O (mixture of isomers) [I-293, [(1R,2S,4R)-4-{[5-({4-[(1R)-4,4-difluoro-3,4-dihydro-1H-isochromen-1-yl]-2-thienyl}carbonyl)pyrimidin-4-yl]amino}-2-hydroxycyclopentyl]methyl sulfamate and [(1R,2S,4R)-4-{[5-({4-[(1S)-4,4-difluoro-3,4-dihydro-1H-isochromen-1-yl]-2-thienyl}carbonyl)pyrimidin-4-yl]amino}-2-hydroxycyclopentyl]methyl sulfamate]			98	< 10	
NS(=O)(=O)OCC1CC(Nc2ncncc2C(=O)c2cc(C3OCCc4ccc(Cl)nc43)c(Cl)s2)CC1O (mixture of isomers) [I-276, [(1R,2S,4R)-4-{[5-({5-chloro-4-[(8S)-2-chloro-5,8-dihydro-6H-pyrano[3,4-b]pyridin-8-yl]-2-thienyl}carbonyl)pyrimidin-4-yl]amino}-2-hydroxycyclopentyl]methyl sulfamate and [(1R,2S,4R)-4-{[5-({5-chloro-4-[(8R)-2-chloro-5,8-dihydro-6H-pyrano[3,4-b]pyridin-8-yl]-2-thienyl}carbonyl)pyrimidin-4-yl]amino}-2-hydroxycyclopentyl]methyl sulfamate]	98	> 8.00			
NS(=O)(=O)OC[C@H]1C[C@@H](Nc2ncncc2C(=O)c2cc([C@@]3(C4=CCCCC4)CCCO3)cs2)C[C@@H]1O (mixture of isomers) [I-116, [(1R,2S,4R)-4-{[5-({4-[(2S)-2-(cyclohex-1-en-1-yl)tetrahydrofuran-2-yl]-2-thienyl}carbonyl)pyrimidin-4-yl]amino}-2-hydroxycyclopentyl]methyl sulfamate and [(1R,2S,4R)-4-{[5-({4-[(2R)-2-(cyclohex-1-en-1-yl)tetrahydrofuran-2-yl]-2-thienyl}carbonyl)pyrimidin-4-yl]amino}-2-hydroxycyclopentyl]methyl sulfamate]	96	> 8.00			
Cc1sc(C(=O)c2cncnc2N[C@@H]2C[C@H](COS(N)(=O)=O)[C@@H](O)C2)cc1[C@@H]1OCCc2cccnc21 (single isomer, unassigned) [I-285b, [(1R,2S,4R)-4-{[5-({4-[(8S)-5,8-dihydro-6H-pyrano[3,4-b]pyridin-8-yl]-5-methyl-2-thienyl}carbonyl)pyrimidin-4-yl]amino}-2-hydroxycyclopentyl]methyl sulfamate or [(1R,2S,4R)-4-{[5-({4-[(8R)-5,8-dihydro-6H-pyrano[3,4-b]pyridin-8-yl]-5-methyl-2-thienyl}carbonyl)pyrimidin-4-yl]amino}-2-hydroxycyclopentyl]methyl sulfamate]			44	100 to 1000	
NS(=O)(=O)OC[C@H]1C[C@@H](Nc2ncncc2C(=O)c2cc(Cc3cccc(Cl)c3)c(F)s2)C[C@@H]1O [I-89, {(1R,2S,4R)-4-[(5-{[4-(3-chlorobenzyl)-5-fluoro-2-thienyl]carbonyl}pyrimidin-4-yl)amino]-2-hydroxycyclopentyl}methyl sulfamate]		> 8.00			98
Cc1sc(C(=O)c2cncnc2N[C@@H]2C[C@H](COS(N)(=O)=O)[C@@H](O)C2)cc1[C@H]1NCCc2ccc(Cl)cc21 [I-263b, [(1R,2S,4R)-4-{[5-({4-[(1S)-7-chloro-1,2,3,4-tetrahydroisoquinolin-1-yl]-5-methyl-2-thienyl}carbonyl)pyrimidin-4-yl]amino}-2-hydroxycyclopentyl]methyl sulfamate]		7.00 to 8.00			89
[(1R,2S,4R)-2-hydroxy-4-({5-[(5-methyl-4-{(R)-[3-(trifluoromethyl)phenyl]sulfinyl}-2-thienyl)carbonyl]pyrimidin-4-yl}amino)cyclopentyl]methyl sulfamate and [(1R,2S,4R)-2-hydroxy-4-({5-[(5-methyl-4-{(S)-[3-(trifluoromethyl)phenyl]sulfinyl}-2-thienyl)carbonyl]pyrimidin-4-yl}amino)cyclopentyl]methyl sulfamate [I-69]	100	> 8.00			
NS(=O)(=O)OC[C@H]1C[C@@H](Nc2ncncc2C(=O)c2cc(CO)c(Cc3cccc(Cl)c3)s2)C[C@@H]1O [I-142, {(1R,2S,4R)-4-[(5-{[5-(3-chlorobenzyl)-4-(hydroxymethyl)-2-thienyl]carbonyl}pyrimidin-4-yl)amino]-2-hydroxycyclopentyl}methyl sulfamate]		> 8.00			94
CC(=O)c1cc(C(=O)c2cncnc2N[C@@H]2C[C@H](COS(N)(=O)=O)[C@@H](O)C2)sc1Cl [I-242, [(1R,2S,4R)-4-{(5-[(4-Acetyl-5-chloro-2-thienyl)carbonyl]pyrimidin-4-yl}amino)-2-hydroxycyclopentyl]methyl sulfamate]		6.00 to 7.00			25
NS(=O)(=O)OC[C@H]1C[C@@H](Nc2ncncc2C(=O)c2cc(C3SCCc4ccc(Cl)cc43)cs2)C[C@@H]1O (single isomer, unassigned) [I-320b, [(1R,2S,4R)-4-{[5-({4-[(1R)-7-chloro-3,4-dihydro-1H-isothiochromen-1-yl]-2-thienyl}carbonyl)pyrimidin-4-yl]amino}-2-hydroxycyclopentyl]methyl sulfamate or [(1R,2S,4R)-4-{[5-({4-[(1S)-7-chloro-3,4-dihydro-1H-isothiochromen-1-yl]-2-thienyl}carbonyl)pyrimidin-4-yl]amino}-2-hydroxycyclopentyl]methyl sulfamate]			93	< 10	
NS(=O)(=O)OC[C@H]1C[C@@H](Nc2ncncc2C(=O)c2cc([C@@H]3OC(=O)c4ccc(Cl)cc43)c(Cl)s2)C[C@@H]1O (mixture of isomers) [I-327, [(1R,2S,4R)-4-{[5-({5-chloro-4-[(1R)-6-chloro-3-oxo-1,3-dihydro-2-benzofuran-1-yl]-2-thienyl}carbonyl)pyrimidin-4-yl]amino}-2-hydroxycyclopentyl]methyl sulfamate and [(1R,2S,4R)-4-{[5-({5-chloro-4-[(1S)-6-chloro-3-oxo-1,3-dihydro-2-benzofuran-1-yl]-2-thienyl}carbonyl)pyrimidin-4-yl]amino}-2-hydroxycyclopentyl]methyl sulfamate]			51	100 to 1000	
NS(=O)(=O)OC[C@H]1C[C@@H](Nc2ncncc2C(=O)c2ccc([C@@H]3OCCCc4ccc(Cl)cc43)s2)C[C@@H]1O (single isomer, unassigned) [I-343a, [(1R,2S,4R)-4-{[5-({5-[(1R)-8-chloro-1,3,4,5-tetrahydro-2-benzoxepin-1-yl]-2-thienyl}carbonyl)pyrimidin-4-yl]amino}-2-hydroxycyclopentyl]methyl sulfamate or [(1R,2S,4R)-4-{[5-({5-[(1S)-8-chloro-1,3,4,5-tetrahydro-2-benzoxepin-1-yl]-2-thienyl}carbonyl)pyrimidin-4-yl]amino}-2-hydroxycyclopentyl]methyl sulfamate]			57	10 to 100	
NS(=O)(=O)OC[C@H]1C[C@@H](Nc2ncncc2C(=O)c2cc([C@@H]3OCCc4ccc(Br)cc43)cs2)C[C@@H]1O.NS(=O)(=O)OC[C@H]1C[C@@H](Nc2ncncc2C(=O)c2cc([C@H]3OCCc4ccc(Br)cc43)cs2)C[C@@H]1O (mixture of isomers) [I-268, [(1R,2S,4R)-4-{[5-({4-[(1R)-7-bromo-3,4-dihydro-1H-isochromen-1-yl]-2-thienyl}carbonyl)pyrimidin-4-yl]amino}-2-hydroxycyclopentyl]methyl sulfamate and [(1R,2S,4R)-4-{[5-({4-[(1S)-7-bromo-3,4-dihydro-1H-isochromen-1-yl]-2-thienyl}carbonyl)pyrimidin-4-yl]amino}-2-hydroxycyclopentyl]methyl sulfamate]	100	> 8.00			
N[C@H](c1cccc(Br)c1)c1cc(C(=O)c2cncnc2N[C@@H]2C[C@H](COS(N)(=O)=O)[C@@H](O)[C@H]2O)sc1Cl (single isomer, unassigned) [I-24b, [(1R,2R,3S,4R)-4-{[5-({4-[(R)-amino(3-bromophenyl)methyl]-5-chloro-2-thienyl}carbonyl)pyrimidin-4-yl]amino}-2,3-dihydroxycyclopentyl]methyl sulfamate or [(1R,2R,3S,4R)-4-{[5-({4-[(S)-amino(3-bromophenyl)methyl]-5-chloro-2-thienyl}carbonyl)pyrimidin-4-yl]amino}-2,3-dihydroxycyclopentyl]methyl sulfamate]	101				
NS(=O)(=O)OC[C@H]1C[C@@H](Nc2ncncc2C(=O)c2cc([C@@H]3NCCc4ccc(Cl)nc43)c(Cl)s2)C[C@@H]1O (single isomer, unassigned) [I-253a, [(1R,2S,4R)-4-{[5-({5-chloro-4-[(8S)-2-chloro-5,6,7,8-tetrahydro-1,7-naphthyridin-8-yl-2-thienyl}carbonyl)pyrimidin-4-yl]amino}-2-hydroxycyclopentyl]methyl sulfamate or ((1R,2S,4R)-4-{([5-({5-chloro-4-[(8R)-2-chloro-5,6,7,8-tetrahydro-1,7-naphthyridin-8-yl]-2-thienyl}carbonyl)pyrimidin-4-yl]amino}-2-hydroxycyclopentyl]methyl sulfamate]	99	> 8.00			
